Assays:
U266 myeloma cells = assay: ROS (superoxide) by FACS with hydroethidium in U266 cells; assay type: cell-based, human; conditions: 200 nM, p<0.001
Procedure: FIG. 7. […] A549 cells were exposed to the indicated concentration of chaetocin for 24 hours, with addition of glutathione or diluent 30 minutes prior to chaetocin addition. Glutathione levels were assessed by spectrophotometric assay as described below. […] Cells were treated with 10 μM chaetocin for 20 minutes prior to assay, and calculated intracellular chaetocin levels were measured by HPLC with adjusted for differences in average cell volume (calculated from measured cell radii ascertained via light microscopy). Shaded area represents 1 standard deviation confidence interval, with central bar reflecting the mean relative intracellular chaetocin level. […] Cells from 4 myeloma patients were exposed to 200 μM hydrogen peroxide for 24 hours prior to assay, with trypan blue exclusion used to assess surviving cells.
Assessment of cellular oxidative stress: Cellular oxidative stress was assessed utilizing 5,6-chloromethyl-2′,7′-dichlorodihydrofluorescein diacetate or hydroethidium (Molecular Probes/Invitrogen, Carlsbad, Calif.) as cell permeable fluorescent probes and FACS analyses.

[1] = tested on: patient CD138+ myeloma cells and CD138- bone marrow cells; assay type: cell-based, human; conditions: 10 μM for 20 minutes, corrected for average cell volumes, 4 patients
Procedure: FIG. 7. Chaetocin induces oxidative stress in A549 cells without appreciable depletion of intracellular reduced glutathione levels, while the selective cytotoxicity of chaetocin in freshly collected myeloma cells appears to be attributable to their increased sensitivity to oxidative stressors. […] Chaetocin-induced increased oxidative species are attenuated by co-treatment with 10 mM NAC (C). D. Summary of results from FACS indicating changes of oxidative species induced in response to various treatments. Results shown are representative of three independent FACS experiments as described in the text; *p<0.05, **p<0.01. E. Effects of chaetocin or hydrogen peroxide (in comparison to diluent) on ROS (superoxide) levels in U266 myeloma cells as assessed using FACS analyses and hydroethidium as an ROS-sensitive FACS probe. Error bars indicate one sample standard deviation, results replicated in triplicate; ***p<0.001. […] Glutathione levels were assessed by spectrophotometric assay as described below. […] Cells were treated with 10 μM chaetocin for 20 minutes prior to assay, and calculated intracellular chaetocin levels were measured by HPLC with adjusted for differences in average cell volume (calculated from measured cell radii ascertained via light microscopy). […]

TrxR1 [2] = biological target: T1, TrxR1 (Rattus norvegicus, UniProt O89049); conditions: substrate of TrxR1, NADPH oxidation
T1 sequence (O89049 1-499): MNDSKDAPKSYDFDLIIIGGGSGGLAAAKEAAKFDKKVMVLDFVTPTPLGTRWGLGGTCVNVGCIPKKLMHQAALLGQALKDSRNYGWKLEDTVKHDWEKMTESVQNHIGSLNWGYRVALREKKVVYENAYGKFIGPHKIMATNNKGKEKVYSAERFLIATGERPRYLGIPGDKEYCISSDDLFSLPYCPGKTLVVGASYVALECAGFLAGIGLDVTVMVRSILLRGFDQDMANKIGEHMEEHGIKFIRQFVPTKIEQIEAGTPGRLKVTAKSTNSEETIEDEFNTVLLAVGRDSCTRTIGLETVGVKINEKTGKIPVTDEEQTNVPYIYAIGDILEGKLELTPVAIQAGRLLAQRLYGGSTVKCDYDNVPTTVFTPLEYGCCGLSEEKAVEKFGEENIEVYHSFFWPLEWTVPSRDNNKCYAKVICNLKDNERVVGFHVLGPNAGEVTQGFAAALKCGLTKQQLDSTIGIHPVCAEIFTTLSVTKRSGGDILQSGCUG
Description: Reagents: Chaetocin, β-Nicotinamide adenine dinucleotide 2′-phosphate reduced tetrasodium salt hydrate (NADPH), rat liver thioredoxin reductase, 5,5′-dithiobis(2-nitrobenzoic acid) (DTNB), oxidized glutathione (GSSG), bovine insulin, gliotoxin, thioredoxin reductase assay kit, anti-actin antibody and Celytic lysis reagent were purchased from Sigma (St. Louis, Mo.); yeast glutathione reductase and Complete Protease Inhibitor Tablets from Roche (Indianapolis, Ind.); BCA protein from Pierce (Rockford, Ill.); oxidized E. coli thioredoxin and dithiothreitol (DTT) from Promega (Madison, Wis.); verruculogen from Calbiochem (San Diego, Calif.); 4-acetamido-4′-maleimidylstilbene-2,2′-disulfonic acid (AMS) and Lipofectamine-Plus from Invitrogen (Carlsbad, Calif.); chaetomin from Alexis Biochemicals (San Diego, Calif.); and anti-thioredoxin antibody from Cell Signaling (Beverly, Mass.). HeLa cells were obtained from ATCC.
Steady-state kinetics: The 100 μL reaction consisted of 100 mM potassium phosphate (pH 7.0), 10 mM EDTA, 0.0004 U/μL thioredoxin reductase and chaetocin or other compounds as indicated. The assay was carried out in a 96-well quartz plate and the oxidation of NADPH was measured as a change in absorption at 340 nm. The initial velocities of the reaction were calculated from the decrease in the absorbance between 0 and 5 min (slope), and on a pathlength of 0.3 cm and NADPH ε=6.22 mmol^−1*cm^−1*L. The velocity versus concentration data were then analyzed using SigmaPlot's Enzyme Kinetics 1.3 program (Systat Software, San Jose, Calif.).

TrxR1 [3] = biological target: T1, TrxR1; assay: Thioredoxin reductase activity assay (DTNB method); assay type: biochemical; design: rat liver thioredoxin reductase; purchased Sigma (St. Louis, Mo.); conditions: cell-free; read-out: IC50, TrxR1-initiated turnover of DTNB
Procedure: HeLa cells were obtained from ATCC.
Final concentrations were 0.0005 U/μL of enzyme and 0.24 mM NADPH in the presence of chaetocin as indicated in a 100 μL reaction. The reaction was started by the addition of DTNB (3 mM) and the change in absorbance at 405 nm was monitored in a plate reader. Activity was calculated as the increase in absorbance between 2 and 5 min after DTNB addition.

CN1C(=O)[C@@]23C[C@]4([C@]56C[C@@]78SS[C@@](CO)(C(=O)N7[C@H]5Nc5ccccc56)N(C)C8=O)c5ccccc5N[C@@H]4N2C(=O)[C@]1(CO)SS3 [chaetocin]
peak shift (ROS, hydroethidium) relative to stained, untreated cells (U266 myeloma cells): 43.26+3.67 | intracellular accumulation in CD138- leukocytes versus CD138+ myeloma cells [1]: no indication of lessened intracellular accumulation | Km (TrxR1 [2]): 4.6 ± 0.6 µM | IC50 (TrxR1 [3]): ~4 µM

— patent US20090264421A1 (priority 2007, published 2009)
